Values after ≈ are worked out from the molar mass of the structure shown. A value given as a limit tells only on which side of the number the result lay.

The results in this text go back to ChEMBL document CHEMBL5053538, “Precursor-Directed Biosynthesis of Talaroenamine Derivatives Using a Yellow River Wetland-Derived Penicillium malacosphaerulum” (2021).

What all share (type): functional
The subject of one test is Bacillus cereus. The test can be described thus: Antimicrobial activity against Bacillus cereus assessed as inhibition of bacterial growth incubated for 24 hrs by agar dilution method. (In general: Agar dilution tests growth on a series of plates holding different concentrations.)
Another test concerns Proteus sp. The test can be described thus: Antimicrobial activity against Proteus sp. assessed as inhibition of bacterial growth incubated for 24 hrs by agar dilution method. The note with it: Proteus sp. (in: enterobacteria).
The test system of the next test is Bacillus subtilis. Description: Antimicrobial activity against Bacillus subtilis assessed as inhibition of bacterial growth incubated for 24 hrs by agar dilution method.
In the next test the test system is Escherichia coli. Description: Antimicrobial activity against Escherichia coli assessed as inhibition of bacterial growth incubated for 24 hrs by agar dilution method.
A further test deals with Pseudomonas. The test can be described thus: Antimicrobial activity against Pseudomonas assessed as inhibition of bacterial growth incubated for 24 hrs by agar dilution method.
In the next test the test system is Mycolicibacterium phlei. Description: Antimicrobial activity against Mycobacterium phlei assessed as inhibition of bacterial growth incubated for 24 hrs by agar dilution method.
In another test the test system is Edwardsiella tarda. The test can be described thus: Antimicrobial activity against Edwardsiella tarda assessed as inhibition of bacterial growth incubated for 24 hrs by agar dilution method.
For the next test, the system named is Acinetobacter baumannii. Description: Antimicrobial activity against Acinetobacter baumannii assessed as inhibition of bacterial growth incubated for 24 hrs by agar dilution method.

Consider `CC1=CC(=O)[C@@](C)(O)C(=O)/C1=C\Nc1ccc(F)c([N+](=O)[O-])c1`, for which the MIC in the test on Bacillus cereus, in the test with Proteus sp., in the test on Bacillus subtilis, in the test with Escherichia coli, with Pseudomonas and in the test on Mycolicibacterium phlei was greater than 10 µg/mL throughout. Further, the MIC in the test with Edwardsiella tarda and in the test with Acinetobacter baumannii was greater than 10 µg/mL throughout.

As to `CC1=CC(=O)[C@@](C)(O)C(=O)/C1=C\Nc1ccc(Br)cc1F`, the MIC (in general, the smallest concentration in the dilution series that meets the test's criterion for growth inhibition) with Bacillus cereus is greater than 10 µg/mL; in the test with Proteus sp., greater than 10 µg/mL; in the test with Bacillus subtilis, greater than 10 µg/mL; in the test on Escherichia coli it was 8.83 µg/mL (≈ 24.9 µM); with Pseudomonas it was greater than 10 µg/mL; in the test with Mycolicibacterium phlei, greater than 10 µg/mL. Moreover, the MIC in the test on Edwardsiella tarda and in the test on Acinetobacter baumannii was greater than 10 µg/mL in each case.

With `CC1=CC(=O)[C@@](C)(O)C(=O)/C1=C\Nc1cccc(OC(F)(F)F)c1`, the MIC with Bacillus cereus was 2.13 µg/mL (≈ 6.24 µM); in the test with Proteus sp., 2.13 µg/mL (≈ 6.24 µM); in the test with Bacillus subtilis, 2.13 µg/mL (≈ 6.24 µM); in the test with Escherichia coli, 4.26 µg/mL (≈ 12.5 µM); in the test on Pseudomonas, greater than 10 µg/mL; in the test on Mycolicibacterium phlei it was greater than 10 µg/mL. The MIC in the test on Edwardsiella tarda and with Acinetobacter baumannii was greater than 10 µg/mL in each case.

Consider `CC1=CC(=O)[C@@](C)(O)C(=O)/C1=C\Nc1ccccc1`, for which the MIC with Bacillus cereus, in the test on Proteus sp., in the test with Bacillus subtilis, in the test on Escherichia coli, in the test on Pseudomonas and with Mycolicibacterium phlei was greater than 10 µg/mL each time. The minimal inhibitory concentration (MIC) in the test with Edwardsiella tarda and in the test on Acinetobacter baumannii was greater than 10 µg/mL throughout.

For `CC1=CC(=O)[C@@](C)(O)C(=O)/C1=C\Nc1cc(F)c(F)c(F)c1`, the MIC is greater than 10 µg/mL with Bacillus cereus; greater than 10 µg/mL with Proteus sp.; greater than 10 µg/mL in the test on Bacillus subtilis; greater than 10 µg/mL with Escherichia coli; 7.76 µg/mL (≈ 24.9 µM) in the test on Pseudomonas; greater than 10 µg/mL in the test with Mycolicibacterium phlei. The minimum inhibitory concentration (MIC) in the test on Edwardsiella tarda and in the test on Acinetobacter baumannii was greater than 10 µg/mL throughout.

Consider `CC1=CC(=O)[C@@](C)(O)C(=O)/C1=C\Nc1ccc(Br)cc1`, for which the MIC in the test on Bacillus cereus, in the test with Proteus sp., in the test on Bacillus subtilis, in the test on Escherichia coli, in the test on Pseudomonas and in the test with Mycolicibacterium phlei was greater than 10 µg/mL throughout. The MIC in the test with Edwardsiella tarda and with Acinetobacter baumannii was greater than 10 µg/mL throughout.

As for `CC1=CC(=O)[C@@](C)(O)C(=O)/C1=C\Nc1ccc(C)cc1`, the minimal inhibitory concentration (MIC) in the test with Bacillus cereus is 0.85 µg/mL (≈ 3.13 µM); with Proteus sp., 6.78 µg/mL (≈ 25 µM); in the test with Bacillus subtilis it was 6.78 µg/mL (≈ 25 µM); in the test with Escherichia coli it was 6.78 µg/mL (≈ 25 µM); with Pseudomonas it was greater than 10 µg/mL; in the test on Mycolicibacterium phlei it was greater than 10 µg/mL. For the same molecule, the minimal inhibitory concentration (MIC) in the test on Edwardsiella tarda and in the test on Acinetobacter baumannii was greater than 10 µg/mL each time.

Regarding `O=C(O)c1cn(C2CC2)c2cc(N3CCNCC3)c(F)cc2c1=O` [CIPROFLOXACIN], the minimal inhibitory concentration (MIC) was 0.26 µg/mL (≈ 0.785 µM) in the test on Bacillus cereus; 0.06 µg/mL (≈ 0.181 µM) with Proteus sp.; 0.06 µg/mL (≈ 0.181 µM) in the test on Bacillus subtilis; 1.04 µg/mL (≈ 3.14 µM) in the test with Pseudomonas; 0.26 µg/mL (≈ 0.785 µM) in the test on Mycolicibacterium phlei; 0.02 µg/mL (≈ 0.0604 µM) in the test on Edwardsiella tarda. Further, the minimum inhibitory concentration (MIC) with Acinetobacter baumannii is 2.07 µg/mL (≈ 6.25 µM).
